The subject of assay [1] is soybean. As to the kind of experiment: Postemergent control of plant species. As to conditions: Glycine max, post-emergence, 336 h, read-out: percent postemergent control. In kind it is in vivo, Glycine max. The procedure, abridged: (§1)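 Foliar spray, 2-4 leaf stage, greenhouse. Formulation: acetone solution (2x final conc.) mixed 1:1 with water + 0.1% surface active agent. ~2 wk hold, watered as needed. Readout = % growth reduction vs untreated same-species controls.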

In assay [2] the test system is crabgrass. As to the kind of experiment: Postemergent control of plant species. In kind it is in vivo, Digitaria spp. As to conditions: Digitaria sanguinalis, post-emergence, 336 h, read-out: percent postemergent control. The procedure, abridged:
as §1

Assay [3] deals with annual morning glory. As to the kind of experiment: Postemergent control of plant species. In kind it is in vivo, Ipomoea spp. As to conditions: Ipomoea, post-emergence, 336 h, read-out: percent postemergent control. A digest of the protocol: as §1
Assay [4] deals with yellow foxtail. Nature of the assay: Postemergent control of plant species. In kind it is in vivo, Setaria lutescens. As to conditions: Setaria, post-emergence, 336 h, read-out: percent postemergent control. The procedure, abridged: as §1
Assay [5] has as its system cotton. As to the kind of experiment: Postemergent control of plant species. In kind it is in vivo, Gossypium spp. As to conditions: Gossypium hirsutum, post-emergence, 336 h, read-out: percent postemergent control. A digest of the protocol: as §1
Assay [6] relates to yellow nutsedge. Nature of the assay: Postemergent control of plant species. In kind it is in vivo, Cyperus esculentus. As to conditions: Cyperus, post-emergence, 336 h, read-out: percent postemergent control. A digest of the protocol:
as §1

The test system of assay [7] is sorghum. As to the kind of experiment: Postemergent control of plant species. In kind it is in vivo, Sorghum vulgare. As to conditions: Sorghum, post-emergence, 336 h, read-out: percent postemergent control. A digest of the protocol: as §1
Assay [8] relates to velvetleaf. As to the kind of experiment: Postemergent control of plant species. In kind it is in vivo, Abutilon theophrasti. As to conditions: Abutilon theophrasti, post-emergence, 336 h, read-out: percent postemergent control. The procedure, abridged:
as §1

Assay [9] relates to sugar beet. Nature of the assay: Postemergent control of plant species. In kind it is in vivo, Beta saccharifera. As to conditions: Beta vulgaris, post-emergence, 336 h, read-out: percent postemergent control. A digest of the protocol: as §1
The test system of assay [10] is rice. As to the kind of experiment: Postemergent control of plant species. In kind it is in vivo, Oryza sativa. As to conditions: Oryza sativa, post-emergence, 336 h, read-out: percent postemergent control. The procedure, abridged: as §1
The test system of assay [11] is johnson grass. As to the kind of experiment: Postemergent control of plant species. In kind it is in vivo, Sorghum halepense. As to conditions: Sorghum halepense, post-emergence, 336 h, read-out: percent postemergent control. The procedure, abridged: as §1
For assay [12], the system named is wild oats. Nature of the assay: Postemergent control of plant species. As to conditions: Avena fatua, post-emergence, 336 h, read-out: percent postemergent control. In kind it is in vivo, Avena fatua. The procedure, abridged:
as §1

Assay [13] relates to nitrification of ammonium nitrogen. Nature of the assay: Suppression of nitrification of ammonium nitrogen in soil. As to conditions: 27° C. The procedure, abridged:
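Soil (20 g) moistened to its 1/3 bar tension value, mixed with test chemical and incubated sealed for two weeks at 27° C. Nitrate extracted with ammonium sulfate solution and measured by nitrate-specific ion electrode; value given as % NH4-N remaining.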

The subject of assay [14] is corn. As to the kind of experiment: Postemergent control of plant species. In kind it is in vivo, Zea mays. As to conditions: Zea mays, post-emergence, 336 h, read-out: percent postemergent control. A digest of the protocol:
as §1

Assay [15] has as its system pigweed. Nature of the assay: Postemergent control of plant species. In kind it is in vivo, Amaranthus spp. As to conditions: Amaranthus retroflexus, post-emergence, 336 h, read-out: percent postemergent control. A digest of the protocol:
as §1

Assay [16] concerns cocklebur. As to the kind of experiment: Postemergent control of plant species. In kind it is in vivo, Xanthium spp. As to conditions: Xanthium strumarium, post-emergence, 336 h, read-out: percent postemergent control. The procedure: In representative operations, each compound to be utilized in a series of tests is dissolved in acetone to one-half of the final volume (twice the final concentration) to be used and the acetone solution in each case is admixed with an equal volume of water containing 0.1 percent by weight of surface active material. The compositions, generally in the nature of an emulsion, were employed to spray separate respective plant species which had been grown to a 2-4 leaf stage in soil of good nutrient content in a greenhouse. The various beds were positioned side by side and exposed to substantially identical conditions of temperature and light. Each bed was maintained so as to prevent any interaction with test compounds in different seed beds. Other plants were left untreated to serve as controls. After treatment, the plants were maintained for about two weeks under greenhouse conditions conducive for good plant growth and watered as necessary. Control refers to the reduction in growth compared to the observed results of the same untreated species.

The test system of assay [17] is jimsonweed. Nature of the assay: Postemergent control of plant species. In kind it is in vivo, Datura stramonium. As to conditions: Datura stramonium, post-emergence, 336 h, read-out: percent postemergent control. A digest of the protocol: as §1
Assay [18] deals with barnyardgrass. As to the kind of experiment: Postemergent control of plant species. In kind it is in vivo, Echinochloa crusgalli. As to conditions: Echinochloa crus-galli, post-emergence, 336 h, read-out: percent postemergent control. The procedure, abridged: as §1
The subject of assay [19] is rape. Nature of the assay: Postemergent control of plant species. In kind it is in vivo, Brassica napus. As to conditions: Brassica napus, post-emergence, 336 h, read-out: percent postemergent control. A digest of the protocol: as §1
Assay [20] relates to wheat. As to the kind of experiment: Postemergent control of plant species. In kind it is in vivo, Triticum aestivum. As to conditions: Triticum aestivum, post-emergence, 336 h, read-out: percent postemergent control. The procedure, abridged:
as §1

For `Cc1cc(C)n2nc(S(=O)(=O)Nc3c(Cl)cc(Cl)cc3Cl)nc2n1` [Compound 35, 5,7-dimethyl-N-(2,4,6-trichlorophynyl)-1,2,4-trizaolo[1,5-a]pyrimidine-2-sulfonamide], the plant injury at 500 ppm in assay [1] came to 70%; in assay [5], 0%; in assay [7] it was 20%; in assay [9], 80%; in assay [10] it was 0%; in [14] it was 0%. In addition, the plant injury at 500 ppm in assay [19] stood at 70%. In addition, the pest or weed control at 500 ppm in assay [2] is 0%; in [3] it was 40%; in assay [4], 0%; in [6], 0%; in assay [8], 0%; in assay [11], 0%. Also, the pest or weed control at 500 ppm in assay [12] is 0%; in assay [15], 90%; in assay [16], 95%; in assay [17], 30%; in [18], 0%. Also, the “% NH4-N Remaining After 2 Weeks Incubation” value amounted to 0% in [13] (0.01 ppm), 3% in [13] (0.1 ppm), 50% in assay [13] (1 ppm) and 78% in assay [13] (10 ppm).

For the compound `Cc1cc(C)n2nc(S(=O)(=O)Nc3ccccc3S(C)(=O)=O)nc2n1` [Compound 45], the plant injury at 500 ppm in assay [1] turned out to be 60%; in [5], 0%; in assay [7] it was 0%; in assay [9], 70%; in assay [10], 50%; in assay [14] it was 0%. Further, the plant injury at 500 ppm in assay [20] is 0%; in [19], 70%. The pest or weed control at 500 ppm in [2] was 0%; in assay [3] it was 10%; in assay [4], 0%; in assay [6] it was 0%; in [8], 50%; in assay [11], 0%. Further, the pest or weed control at 500 ppm in assay [12] is 0%; in [16], 25%; in assay [17], 0%; in assay [18], 0%. Also, the “% NH4-N Remaining After 2 Weeks Incubation” value amounted to 0% in assay [13] (0.01 ppm), 3% in assay [13] (0.1 ppm), 45% in assay [13] (1 ppm) and 94% in assay [13] (10 ppm).

Turning to `O=S(=O)(Nc1ccccc1C(F)(F)F)c1nc2ncc(Cl)cn2n1` [Compound 118], the plant injury at 500 ppm in assay [1] came out at 0%; in [5], 0%; in [7] it was 0%; in assay [9], 100%; in [10] it was 0%; in [14], 0%. Further, the plant injury at 500 ppm in [19] was found to be 80%. In addition, the pest or weed control at 500 ppm is 60% in assay [2]; 70% in assay [3]; 20% in [4]; 70% in [6]; 80% in assay [8]; 0% in [11]. Further, the pest or weed control at 500 ppm was found to be 0% in assay [12]; 70% in assay [15]; 100% in [16]; 100% in assay [17]; 0% in assay [18]. For the same compound, the “% NH4-N Remaining After 2 Weeks Incubation” value was 30% in [13] (0.06 ppm), 37% in [13] (0.25 ppm), 61% in assay [13] (1 ppm) and 85% in assay [13] (4 ppm).

(Values after patent US4740233A, “Substituted 1,2,4-triazolo[1,5-a]-pyrimidine-2-sulfonamides and compositions and methods of controlling undesired vegetation and suppressing the nitrification of ammonium nitrogen in soil” (The Dow Chemical Company, priority 1986, dated 1988).)
